SMILES strings stand for the structures.

In the test the test system is human dermal fibroblasts. Nature of the test: Collagen I secretion, CODTA combined with SDA (Example 3). The test is classed as cell-based. The conditions noted are these: in combination with Stearidonic Acid base; relative to diluent (vehicle) alone. On the procedure:
This example provides outline results of the effect of two test active ingredient mixes on collagen I secretion by human dermal fibroblasts. Human dermal fibroblasts (originally derived from explant cultures of normal human breast dermis) were cultured under standard conditions. Two test combinations of actives (CODTA's when combined with SDA) were initially screened for cytotoxicity before testing.
Collagen I levels were determined and are expressed as a percentage of the levels observed in samples from cultures treated with diluent (vehicle) alone.
Pepsin digests of both cell culture medium, and the cell culture surface (plate) from each treated culture well were analysed.

Turning to `CCCCC\C=C/C=C/C=C/CCCCCCC(=O)O` [Calendic Acid, Calendic acid], the “Percentage increase in collagen I secretion” value amounted to 187%. For `CCCCC\C=C/C=C/C=C\CCCCCCC(=O)O` [Jacaric Acid, Jacaric acid], the “Percentage increase in collagen I secretion” value is 278%.

(Values after US8552063B2, “Composition for accelerated production of collagen” (E.S.L.I. Limited, priority 2008, dated 2013).)
